Tests used:
LDL receptor = assay: RT-PCR quantification of LDL receptor mRNA expression in 3T3-L1 neo-adipocytes; type: cell-based; conditions: 24 hours
Source text: (§1) To evidence regulation of transcription (control of the number of copies of the messenger RNA for the gene coding for the protein studied), it was necessary to isolate the messenger RNA (mRNA) synthesized from the cell culture. The mRNA specific for the protein of interest must be recognized in the total mRNA pool present in the cell.
(§2) The used method is RT-PCR, of amplification and quantization, conducted in real time on the latest-generation systems and which enables in-line quantitative measurement of the target mRNA.
(§3) Neo-adipocytes 3T3-L1 in the adipocytic differentiation phase (after addition of an appropriate triggering cocktail) were incubated with cafestol acetate for 24 hours.
(§4) At the end of the test, the adipocytes were lysed and the extracted mRNA transcribed to cDNA (by reverse transcriptase). The cDNA were then amplified (n copies using Taq polymerase) to obtain a detectable signal.
(§5) The amplicons (cDNA amplification products) were quantified directly, as they emerged in the RT-PCR system, then subjected to electrophoresis in order to visually illustrate the results.

VLDL receptor = assay: RT-PCR quantification of VLDL receptor mRNA expression in 3T3-L1 neo-adipocytes; type: cell-based
Source text: as §1, §2, §3, §4, §5

CC(=O)OC[C@@]1(O)C[C@@]23CC[C@@H]4c5ccoc5CC[C@@]4(C)[C@@H]2CC[C@@H]1C3 [Cafestol Acetate, cafestol acetate]
Change in LDL receptor mRNA expression relative to control (LDL receptor; equivalent to that of the positive control): −33% | mRNA expression LDL receptor, standardized on internal standard β-actin, percentage relative to the control (LDL receptor; cafestol acetate 15 ppm, 3T3-L1 neo-adipocytes in differentiation phase, mean of n = 3 tests, control = 100): 66% | mRNA expression VLDL receptor, standardized on internal standard β-actin, percentage relative to the control (VLDL receptor; cafestol acetate 15 ppm, 24 hours, 3T3-L1 neo-adipocytes in differentiation phase, mean of n = 3 tests, control = 100): 90% | Reduction of the VLDLr (mRNA expression) (VLDL receptor; in 24 hours): 10%
